Read-outs that look alike come from different tables or passages of the source.

These results are taken from paper PMC4157719, “Arabidopsis membrane-associated acyl-CoA-binding protein ACBP1 is involved in stem cuticle formation” (Journal of Experimental Botany, 2014).

For this assay, the target named is T1, rACBP1 ((His)6-tagged recombinant AtACBP1) (Arabidopsis thaliana, UniProt Q9SM23).
T1 construct: gene ACBP1; (His)6-tagged, soluble fraction of E. coli BL21(DE3), Ni-NTA purified
T1 sequence (Q9SM23 1-338): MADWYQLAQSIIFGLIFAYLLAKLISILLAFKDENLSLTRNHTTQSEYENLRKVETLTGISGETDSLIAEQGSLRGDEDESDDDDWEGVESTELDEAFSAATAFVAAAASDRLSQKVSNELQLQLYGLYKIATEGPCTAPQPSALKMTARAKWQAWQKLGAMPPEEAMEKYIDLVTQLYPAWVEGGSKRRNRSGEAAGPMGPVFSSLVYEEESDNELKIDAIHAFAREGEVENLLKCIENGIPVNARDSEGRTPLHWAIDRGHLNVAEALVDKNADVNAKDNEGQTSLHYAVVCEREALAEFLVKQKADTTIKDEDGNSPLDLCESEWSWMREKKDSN
Kind of assay: isothermal titration calorimetry. Format: binding. The source says: isothermal titration calorimetry on rACBP1 ((His)6-tagged recombinant AtACBP1)
(Isothermal titration calorimetry measures the heat released or taken up as one component is titrated into another.)

Setting [1] is: 30 °C, single binding site model.

On to `CCCCCCCCCCCCCCCCCCCCCCCC(=O)SCCNC(=O)CCNC(=O)[C@H](O)C(C)(C)COP(=O)(O)OP(=O)(O)OC[C@H]1O[C@@H](n2cnc3c(N)ncnc32)[C@H](O)[C@@H]1OP(=O)(O)O` [C24:0, C24:0-CoA], for which the dissociation constant (Kd) came out at 2140 ± 130 nM. As to `CCCCCCCCCCCCCCCCCCCCCCCCC(=O)SCCNC(=O)CCNC(=O)[C@H](O)C(C)(C)COP(=O)(O)OP(=O)(O)OC[C@H]1O[C@@H](n2cnc3c(N)ncnc32)[C@H](O)[C@@H]1OP(=O)(O)O` [C25:0, C25:0-CoA], the Kd worked out at 1690 ± 110 nM. As for `CCCCCCCCCCCCCCCCCCCCCCCCCC(=O)SCCNC(=O)CCNC(=O)[C@H](O)C(C)(C)COP(=O)(O)OP(=O)(O)OC[C@H]1O[C@@H](n2cnc3c(N)ncnc32)[C@H](O)[C@@H]1OP(=O)(O)O` [C26:0, C26:0-CoA], the dissociation constant Kd amounted to 1940 ± 120 nM. As for C18:1-CoA, the Kd under setting [1] came to 760 ± 150 nM. Consider C18:2-CoA, for which the Kd under setting [1] was found to be 830 ± 40 nM.

Take C18:3-CoA: the dissociation constant (Kd) under setting [1] is 440 ± 10 nM.

As a reminder, the Kd is the concentration at which binding is half-saturated.
